Assay results taken from patent US20100305068A1, “COMPOUNDS AND METHODS FOR MODULATING PROTEIN TRAFFICKING” (priority 2006, published 2010).

Tested on: pdr5 ypt1^ts cells
Experiment: microbe, parasite or virus in culture
Assay type: cell-based, yeast
Settings: 37° C.; for minimal effective concentration: Saccharomyces cerevisiae, lowest concentration tested giving growth above the 0 μM background, read-out: ypt1-ts MRC (minimal rescue concentration); for minimal effective concentration / optical density, ypt1-ts, 0.39 / optical density, ypt1-ts, 0.78 / optical density, ypt1-ts, 1.56 / optical density, ypt1-ts, 3.13 / optical density, ypt1-ts, 6.25 / optical density, ypt1-ts, 12.5 / optical density, ypt1-ts, 25: Table 2; for optical density, ypt1-ts, 0.39: 0.39 μM compound; for optical density, ypt1-ts, 0.39 / optical density, ypt1-ts, 0.78 / optical density, ypt1-ts, 1.56 / optical density, ypt1-ts, 3.13 / optical density, ypt1-ts, 6.25 / optical density, ypt1-ts, 12.5 / optical density, ypt1-ts, 25: background (0 μM) 0.058; for optical density, ypt1-ts, 0.78: 0.78 μM compound; for optical density, ypt1-ts, 1.56: 1.56 μM compound; for optical density, ypt1-ts, 3.13: 3.13 μM compound; for optical density, ypt1-ts, 6.25: 6.25 μM compound; for optical density, ypt1-ts, 12.5: 12.5 μM compound; for optical density, ypt1-ts, 25: 25 μM compound; for optical density, 3.13 uM / optical density, 12.5 uM / optical density, 50 uM: Table 3, background (0 uM) 0.077; for optical density, 3.13 uM: 3.13 uM compound; for optical density, 12.5 uM: 12.5 uM compound; for optical density, 50 uM: 50 uM compound
Description: The activity of the compounds as modulators of protein trafficking may be measured in the assays described herein that evaluate the ability of a compound to rescue an impairment in protein trafficking. For example, the yeast mutant cell line ypt1^ts can be used to identify compounds that rescue cells from the lethal phenotype of a mutant YPT1 allele (see, e.g., Examples and Schmitt et al. (1988) Cell 53:635-47). The activity may be measured, for example, in a whole yeast cell assay using 384-well screening protocol and an optical density measurement.
The yeast mutant cell line ypt1^ts suppresses, in a temperature dependent fashion, the dominant-lethal phenotype of a mutant YPT1 allele (Schmitt et al. (1988) Cell 53:635-47). ypt1^ts cells grow normally at temperatures up to 30° C., but are growth arrested at 37° C. (Id.).
A library of compounds (“The Spectrum Collection”) obtained from Microsource Discovery Systems, Inc. (Gaylordsville, Conn.) was screened to assess the ability of individual compounds to restore growth of ypt1^ts cells. Screening was carried out using ypt1^ts cells containing a mutation in the pdr5 gene (resulting in inactivation of a membrane efflux pump). The effect of the compounds was measured in pdr5 ypt1^ts cells cultured at 37° C.

SMILES	minimal effective concentration [µM]	optical density, ypt1-ts, 0.39	optical density, ypt1-ts, 0.78	optical density, ypt1-ts, 1.56	optical density, ypt1-ts, 3.13	optical density, ypt1-ts, 6.25	optical density, ypt1-ts, 12.5	optical density, ypt1-ts, 25	optical density, 3.13 uM	optical density, 12.5 uM	optical density, 50 uM
C=C1CCC(OC(C)=O)/C(C)=C/C[C@@H]2[C@@H]1CC2(C)C (some centres unmarked) [CARY[…]]	12.5	0.087	0.076	0.084	0.1	0.109	0.239	0.258			
CC(C)N(C(=O)CCl)c1ccccc1 [PROPACHLOR]	6.25	0.101	0.085	0.098	0.121	0.141	0.177	0.184			
COC(=O)CCCOc1ccc(Cl)cc1Cl [2,4-DICHLORO- PHENOXY- BUTYRIC ACID, METHYL ESTER]									0.159	0.255	0.221
CCOc1ccc(C(=O)c2ccc(O)c(O)c2O)cc1 [2,3,4-TRIHYDROXY-4'- ETHOX[…]]	12.5	0.114	0.074	0.081	0.103	0.1	0.169	0.365			
Cc1c(O)c(O)cc2c1CC=C1[C@@]2(C)CC[C@@]2(C)C3C[C@](C)(C(=O)O)CC[C@]3(C)CC[C@]12C (some centres unmarked) [DIHYDRO- CELASTROL]									0.119	0.526	0.33
C=C1C2CC[C@@]3(C)[C@H](c4ccoc4)OC(=O)C[C@]13O[C@H]1CC(=O)C(C)(C)[C@H](C(O)C(=O)OC)[C@@]21C (some centres unmarked) [6-HYDROXY- […] METHYL ESTER]									0.232	0.561	0.626
CCOC(=O)C1(O)Oc2cc(OC)cc(OC)c2C(=O)C1c1ccccc1 (centres unmarked) [2-ETHOXY- CARBONYL-2- HYDROXY-5,7- DIMETHOXY- ISOFLAVANONE]									0.091	0.134	0.468
CC(=O)O[C@@H]1CC2C(C)(C)CCC[C@]2(C)C2CC[C@]3(C)C(=CC(=O)O[C@H]3c3ccoc3)[C@@]21C (some centres unmarked) [DEOXO- DEOXY- DIHYDRO- GEDUNIN]									0.245	0.479	0.452
COC(=O)C[C@H]1C(C)(C)[C@@H](O)[C@@H]2CC3=C4C=C(OC)O[C@@H](c5ccoc5)[C@]4(C)CCC3[C@]1(C)C2=O (stereo partly drawn) [3-DEOXO-3beta-HYDRO[…] 16-ENOL ETHER]	3.13	0.102	0.077	0.091	0.141	0.219	0.583	0.625			
CC(C)C1=CC2=CC[C@H]3[C@](C)(CO)CCC[C@]3(C)C2CC1 (some centres unmarked) [ABIETANOL]									0.102	0.274	0.29
COC(=O)[C@]1(C)CC[C@]2(C)CC[C@]3(C)C4=CCc5c(cc(O)c(O)c5C)[C@]4(C)CC[C@@]3(C)[C@@H]2C1 [PRISTIMEROL]	6.25	0.11	0.079	0.101	0.114	0.168	0.362	0.591			
CCOC(=O)c1c(C)cc(O)c(C=O)c1O [H[…], ETHYL ESTER]	3.13	0.104	0.078	0.105	0.135	0.204	0.621	0.645			
CC1=C2C(=CO[C@H](C)[C@H]2C)C(=O)C(C(=O)O)=C1O [CITRININ]									0.102	0.158	0.38
CC(=O)Nc1ccc(OC(=O)c2ccccc2O)cc1 [ACETAMINOSALOL, reference compound]	12.5	0.085	0.078	0.083	0.085	0.103	0.127	0.198			
